According to patent publication EP4722246A1, “TEM8-TARGETED ANTIBODY OR ANTIGEN-BINDING FRAGMENT THEREOF, AND USE THEREOF” (Inxmed (Nanjing) Co., Ltd., priority 2023, dated 2024):
Starred links: 1 amine or outer side, 2 acyl side, 3 side chain; linkers in the order of their positions; H or OH if unused. Non-standard residues stand in square brackets, D forms with d. Residues, ends and D or L forms follow the SMILES beside them. *: point of attachment. Dolaproine = CO[C@@H]([C@@H]1CCCN1)[C@@H](C)C(=O)O; Hexanoyl(6-maleimido) = O=C1C=CC(=O)N1CCCCCC(=O)*; Dil = CC[C@H](C)[C@H](NC)[C@@H](CC(=O)O)OC; PABC = O=C(OCc1ccc(N[*:1])cc1)[*:2]; X1 = C[C@@H](N*)[C@@H](O)c1ccccc1; Cit = NC(=O)NCCC[C@H](N)C(=O)O; NMeV = CN[C@H](C(=O)O)C(C)C

Tested on: HCT116
Experiment: ADC in vitro cell killing assay (CCK-8)
Format: cell-based, human
Settings: HCT116, 72 h
Experimental: HCT116 (Cat: CBP60028, Cobioer Biosciences Co., Ltd.) in the logarithmic growth phase was trypsinized, plated in a 96-well plate at 3000 cells/well in 100 µL, and the plate was incubated in a 37°C, 5% CO2 incubator for 24 h. ADC was subjected to a 5-fold serial dilution with cell culture medium (Ham's F-12K, 10% FBS, AusGenex, Cat:FBS500-S) starting from 30000nM, yielding 10 concentration gradients. 10 µL of the diluted sample was added to the cell plate for mixing well, and the plate was incubated in a 37°C, 5% CO2 incubator for 72 h. 10 µL of Cell Counting Kit-8 (CellorLab, CX001) was added to the plate, and the plate was incubated in a 37 °C, 5% CO2 constant temperature incubator for 3 h. The absorbance value at 450 nm was measured with a microplate reader. Data was analyzed with Graphpad, with the in vitro killing activity of TEM8 antibody-drug conjugate shown in Table 5 and the IC50 curve shown in FIG. 4. Table 5: In vitro killing activity of TEM8 antibody-drug conjugate or linker + payload or payload

Compound	IC50
CC[C@H](C)[C@@H]([C@@H](CC(=O)N1CCC[C@H]1[C@H](OC)[C@@H](C)C(=O)N[C@H](C)[C@@H](O)c1ccccc1)OC)N(C)C(=O)[C@@H](NC(=O)[C@@H](NC)C(C)C)C(C)C [MMAE] (H-[NMeV]V[Dil][Dolaproine]-X1)	14.8 nM
CC[C@H](C)[C@@H]([C@@H](CC(=O)N1CCC[C@H]1[C@H](OC)[C@@H](C)C(=O)N[C@H](C)[C@@H](O)c1ccccc1)OC)N(C)C(=O)[C@@H](NC(=O)[C@H](C(C)C)N(C)C(=O)OCc1ccc(NC(=O)[C@H](CCCNC(N)=O)NC(=O)[C@@H](NC(=O)CCCCCN2C(=O)C=CC2=O)C(C)C)cc1)C(C)C [VcMMAE] ({Hexanoyl(6-maleimido)}-V[Cit][PABC][NMeV]V[Dil][Dolaproine]-X1)	1280 nM
